From the METLIN SMRT retention time set (Domingo-Almenara et al. 2019)

Experiment: gradient 5% acetonitrile 3 min, to 50% in 2 min, to 85% in 15 min, held 3 min, 100 µL/min
Settings: column: Zorbax Extend-C18 2.1 x 50 mm; eluents: water / acetonitrile, 0.1% formic acid
How it was run: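 In both positive and negative ionization mode, a quadrupole time-of-flight mass spectrometer coupled to HPLC analyzed pure standards run in mixtures of ~100 molecules. The Zorbax Extend-C18 column (2.1 × 50 mm, 1.8 μm) was operated at 100 μL/min with water and acetonitrile, each containing 0.1% formic acid. The dead volume was 40 μL and the dwell volume 900 μL. Retention time came from adduct peaks that were computationally picked and individually inspected by hand.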

| SMILES | RP-LC retention time [s] |
| --- | --- |
| O=c1n(Cc2c(F)cccc2Cl)nc2c(S(=O)(=O)N3CCc4ccccc4C3)cccn12 | 975 |
| COc1ccc(-c2cn3c(CC(=O)Nc4cc(OC)ccc4OC)csc3n2)cc1 | 780 |
| Nc1nc(SCc2ccccc2Cl)c2ncn(C3OC(CO)C(O)C3O)c2n1 (stereo unspecified) | 672 |
| COc1ccc(NC(=O)c2cc(C(C)(C)C)n3nccc3n2)cc1OC | 1110 |
| CC(=O)c1ccc(NC(=O)c2cnc(-c3ccccc3)nc2-c2ccncc2)cc1 | 795 |
| O=C(NCc1cc(F)cc(F)c1)C1CCCN(c2ccc(-c3ccccc3)nn2)C1 (stereo unspecified) | 735 |
| O=C(Cn1cncn1)N1CCC(c2nnc(C(F)(F)F)o2)CC1 | 588 |
| Cn1c(-c2ccccc2)nn(CCNS(=O)(=O)c2ccc(Cl)s2)c1=O | 748 |
| CNC(=O)C1CCCN(C(=O)Nc2ccc(NC(=O)Nc3ccccc3)cc2)C1 (stereo unspecified) | 663 |
| COc1ccc(NC(=O)CCc2cccc3[nH]ccc23)cc1OC | 755 |
| Cc1ccc(C)c(-c2coc(-c3ccc(NC(=O)NCc4ccco4)cc3)n2)c1 | 1110 |
| O=C(Nc1ccc2nncn2c1)c1ccc(Cl)cc1 | 719 |
| COc1ccc(-c2cn3c(CC(=O)Nc4cc(C)ccc4C)csc3n2)cc1OC | 746 |
| O=C(Nc1ccc(Br)cc1)C1CCCN(c2ncc(-c3cccc(F)c3)cn2)C1 (stereo unspecified) | 1230 |
| CS(=O)(=O)N1C[C@H]2CCN(Cc3cn[nH]c3-c3ccccc3)C[C@H]21 | 574 |
| CCCN(C)c1nccn2c(=O)n(CC(=O)Nc3ccc(F)c(Cl)c3)nc12 | 731 |
| CC1(C(=O)NCc2ccccc2)CN(S(=O)(=O)c2ccccc2)CC(=O)N1C1CCCCC1 (stereo unspecified) | 992 |
| Cc1ccc(-n2ncc3c(=O)n(Cc4nc(-c5cccc(Br)c5)no4)cnc32)cc1 | 1180 |
| COc1cc(OC)c(NC(=O)C(C)Oc2ccc(=O)n(-c3ccc(F)cc3)n2)cc1Cl (stereo unspecified) | 844 |
| Cc1ccc(N2CCC(NC(=O)C3CCCC3)C2=O)cc1 (stereo unspecified) | 762 |

Continued, values first:

| RP-LC retention time [s] | SMILES |
| --- | --- |
| 956 | CCOC(=O)c1ccc(NC(=O)C2(c3cccs3)CCOCC2)cc1 |
| 942 | CCc1nc(OCC(=O)NCc2cccc(F)c2)c2c(C)c(C)oc2n1 |
| 847 | CC1(C(=O)NCc2ccc(F)cc2)Cn2cnc(C(=O)Nc3cc(F)ccc3F)c2C(=O)N1C1CC1 (stereo unspecified) |
| 946 | O=c1c(S(=O)(=O)N2CCCCCC2)cccn1Cc1cccc(F)c1 |
| 898 | CCN1CCN(C2=NCCN2C(=O)c2ccccc2Br)CC1 |
| 729 | COc1ncc(C(=O)N2CCc3ccccc3C2)cn1 |
| 924 | Cc1csc(-c2cc(S(=O)(=O)NCc3cccs3)c(C)n2C)n1 |
| 646 | O=C(CN1C(=O)C2CCCCN2c2ccc(S(=O)(=O)N3CCCC3)cc21)NCc1cccnc1 (stereo unspecified) |
| 626 | C=CCn1c(=O)c(=O)n(Cc2ccc(C(=O)N3CCN(c4ccccn4)CC3)cc2)c2ccccc21 |
| 687 | Cc1cnc(-n2nnc(C(=O)N3CCN(C(=O)c4ccco4)CC3)c2C)s1 |
| 946 | CCc1nc(-c2csc(S(=O)(=O)N3CCCC(C(=O)NCc4ccc(C)o4)C3)c2)no1 (stereo unspecified) |
| 709 | COc1ccc(NC(=O)N2CCC(n3c(-c4ccc(OC)cc4)nc4cccnc43)C2)cc1 (stereo unspecified) |
| 614 | CCNC(=O)N1CCCN(S(=O)(=O)C(C)C)CC1 |
| 652 | O=C1CCN(C(=O)c2ccsc2)CCCCCCN1 |
| 677 | CCc1cc(=O)n(CC(=O)Nc2cccc(C(C)=O)c2)c(N2CCOCC2)n1 |
| 556 | O=C(NCCCN1CCCC1)C1CCN(c2nnc3ccc(Cl)cn23)CC1 |
